Experimental data as given in patent publication US9149038B2, “4-amino-6-(heterocyclic)picolinates and 6-amino-2-(heterocyclic)pyrimidine-4-carboxylates and their use as herbicides” (Dow AgroSciences LLC, priority 2013, dated 2015).
Read-outs that look alike come from different tables or passages of the source.

Test system: Direct Seeded Rice and weed species
Assay: Postemergence herbicidal activity in direct seeded rice, visual rating after 20-22 days and probit GR20/GR50/GR80/GR90 (Table 14)
Format: in vivo
Conditions: for pest or weed control at 17.5 g/ha / pest or weed control at 35 g/ha / pest or weed control at 70 g/ha: post-emergence, 504 h, postemergence; for pest or weed control at 17.5 g/ha: 17.5 g ai/ha; for pest or weed control at 35 g/ha: 35 g ai/ha; for pest or weed control at 70 g/ha: 70 g ai/ha
Method in brief: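 Visual injury scores (0 = none, 100 = complete kill) taken 20-22 days after treatment and fitted by probit analysis over several doses to give GR20/GR50/GR80/GR90. Plants at 2nd–3rd true leaf in pH about 8.1 loam–sand mix received track-sprayer applications of 187 L/ha containing 1.25% (v/v) crop oil concentrate.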

[1] = BRAPP (broadleaf signalgrass, Brachiaria platyphylla), read-out: Visual Growth Reduction (%) 21 Days After Application BRAPP
[2] = CYPDI (small-flower flatsedge, Cyperus difformis), read-out: Visual Growth Reduction (%) 21 Days After Application CYPDI
[3] = CYPES (yellow nutsedge, Cyperus esculentus), read-out: Visual Growth Reduction (%) 21 Days After Application CYPES
[4] = CYPIR (rice flatsedge, Cyperus iria), read-out: Visual Growth Reduction (%) 21 Days After Application CYPIR
[5] = DIGSA (large crabgrass, Digitaria sanguinalis), read-out: Visual Growth Reduction (%) 21 Days After Application DIGSA
[6] = ECHCG (barnyardgrass, Echinochloa crus-galli), read-out: Visual Growth Reduction (%) 21 Days After Application ECHCG
[7] = ECHCO (junglerice, Echinochloa colonum), read-out: Visual Growth Reduction (%) 21 Days After Application ECHCO
[8] = LEFCH (Chinese sprangletop, Leptochloa chinensis), read-out: Visual Growth Reduction (%) 21 Days After Application LEFCH
[9] = ORYSJ (Oryza sativa, rice crop), read-out: Visual Growth Reduction (%) 21 Days After Application ORYSJ
[10] = ORYSK (Oryza sativa, rice crop), read-out: Visual Growth Reduction (%) 21 Days After Application ORYSK
[11] = SCPJU (Japanese bulrush, Schoenoplectus juncoides Roxb.), read-out: Visual Growth Reduction (%) 21 Days After Application SCPJU
[12] = SEBEX (hemp sesbania, Sesbania exaltata), read-out: Visual Growth Reduction (%) 21 Days After Application SEBEX

For `Nc1cc(-c2cc3c(cc2F)OC(F)(F)O3)nc(C(=O)O)c1Cl` [Compound 42], the “GR50 BRAPP” value (BRAPP (Brachiaria platyphylla), probit analysis, dose for 50 percent growth reduction) was 0.004 g ai/ha, the “GR80 BRAPP” value (BRAPP (Brachiaria platyphylla), probit analysis, dose for 80 percent growth reduction) was 0.2 g ai/ha and the “GR90 BRAPP” value (BRAPP (Brachiaria platyphylla), probit analysis, dose for 90 percent growth reduction) was 1 g ai/ha. For the same molecule, the “GR50 CYPDI” value (CYPDI (Cyperus difformis), probit analysis, dose for 50 percent growth reduction) was 0.004 g ai/ha, the “GR80 CYPDI” value (CYPDI (Cyperus difformis), probit analysis, dose for 80 percent growth reduction) was 0.2 g ai/ha and the “GR90 CYPDI” value (CYPDI (Cyperus difformis), probit analysis, dose for 90 percent growth reduction) was 1 g ai/ha. For the same molecule, the “GR50 CYPES” value (CYPES (Cyperus esculentus), probit analysis, dose for 50 percent growth reduction) was 0.4 g ai/ha, the “GR80 CYPES” value (CYPES (Cyperus esculentus), probit analysis, dose for 80 percent growth reduction) was 2 g ai/ha and the “GR90 CYPES” value (CYPES (Cyperus esculentus), probit analysis, dose for 90 percent growth reduction) was 5 g ai/ha. The “GR50 CYPIR” value (CYPIR (Cyperus iria), probit analysis, dose for 50 percent growth reduction) was 3 g ai/ha, the “GR80 CYPIR” value (CYPIR (Cyperus iria), probit analysis, dose for 80 percent growth reduction) was 5 g ai/ha and the “GR90 CYPIR” value (CYPIR (Cyperus iria), probit analysis, dose for 90 percent growth reduction) was 6 g ai/ha. For the same molecule, the “GR50 DIGSA” value (DIGSA (Digitaria sanguinalis), probit analysis, dose for 50 percent growth reduction) was 0.004 g ai/ha, the “GR80 DIGSA” value (DIGSA (Digitaria sanguinalis), probit analysis, dose for 80 percent growth reduction) was 0.158 g ai/ha and the “GR90 DIGSA” value (DIGSA (Digitaria sanguinalis), probit analysis, dose for 90 percent growth reduction) was 1 g ai/ha. The “GR50 ECHCG” value (ECHCG (Echinochloa crus-galli), probit analysis, dose for 50 percent growth reduction) was 0.0001 g ai/ha, the “GR80 ECHCG” value (ECHCG (Echinochloa crus-galli), probit analysis, dose for 80 percent growth reduction) was 0.0001 g ai/ha and the “GR90 ECHCG” value (ECHCG (Echinochloa crus-galli), probit analysis, dose for 90 percent growth reduction) was 0.0001 g ai/ha. The “GR50 ECHCO” value (ECHCO (Echinochloa colonum), probit analysis, dose for 50 percent growth reduction) was 0.00015 g ai/ha, the “GR80 ECHCO” value (ECHCO (Echinochloa colonum), probit analysis, dose for 80 percent growth reduction) was 0.0207 g ai/ha and the “GR90 ECHCO” value (ECHCO (Echinochloa colonum), probit analysis, dose for 90 percent growth reduction) was 0.268 g ai/ha. For the same molecule, the “GR50 LEFCH” value (LEFCH (Leptochloa chinensis), probit analysis, dose for 50 percent growth reduction) was 4 g ai/ha, the “GR80 LEFCH” value (LEFCH (Leptochloa chinensis), probit analysis, dose for 80 percent growth reduction) was 8 g ai/ha and the “GR90 LEFCH” value (LEFCH (Leptochloa chinensis), probit analysis, dose for 90 percent growth reduction) was 13 g ai/ha. For the same molecule, the “GR20 ORYSJ” value (ORYSJ (Oryza sativa, rice crop), probit analysis, dose for 20 percent growth reduction) was 1 g ai/ha, the “GR20 ORYSK” value (ORYSK (Oryza sativa, rice crop), probit analysis, dose for 20 percent growth reduction) was 1 g ai/ha and the “GR50 SCPJU” value (SCPJU (Schoenoplectus juncoides Roxb.), probit analysis, dose for 50 percent growth reduction) was 0.0001 g ai/ha. The “GR80 SCPJU” value (SCPJU (Schoenoplectus juncoides Roxb.), probit analysis, dose for 80 percent growth reduction) was 0.0001 g ai/ha, the “GR90 SCPJU” value (SCPJU (Schoenoplectus juncoides Roxb.), probit analysis, dose for 90 percent growth reduction) was 0.0001 g ai/ha and the “GR50 SEBEX” value (SEBEX (Sesbania exaltata), probit analysis, dose for 50 percent growth reduction) was 2 g ai/ha. For the same molecule, the “GR80 SEBEX” value (SEBEX (Sesbania exaltata), probit analysis, dose for 80 percent growth reduction) was 5 g ai/ha, the “GR90 SEBEX” value (SEBEX (Sesbania exaltata), probit analysis, dose for 90 percent growth reduction) was 9 g ai/ha and the pest or weed control at 17.5 g/ha [1] was 95 to 100%. It also gave a pest or weed control at 35 g/ha [1] of 95 to 100%, a pest or weed control at 70 g/ha [1] of 95 to 100% and a pest or weed control at 17.5 g/ha [2] of 95 to 100%. For the same molecule, the pest or weed control at 35 g/ha [2] was 95 to 100%, the pest or weed control at 70 g/ha [2] was 95 to 100% and the pest or weed control at 17.5 g/ha [3] was 95 to 100%. It also gave a pest or weed control at 35 g/ha [3] of 95 to 100%, a pest or weed control at 70 g/ha [3] of 95 to 100% and a pest or weed control at 17.5 g/ha [4] of 95 to 100%. For the same molecule, the pest or weed control at 35 g/ha [4] was 95 to 100%, the pest or weed control at 70 g/ha [4] was 95 to 100% and the pest or weed control at 17.5 g/ha [5] was 95 to 100%. The pest or weed control at 35 g/ha [5] was 95 to 100%, the pest or weed control at 70 g/ha [5] was 95 to 100% and the pest or weed control at 17.5 g/ha [6] was 95 to 100%. The pest or weed control at 35 g/ha [6] was 95 to 100%, the pest or weed control at 70 g/ha [6] was 95 to 100% and the pest or weed control at 17.5 g/ha [7] was 95 to 100%. The pest or weed control at 35 g/ha [7] was 95 to 100%, the pest or weed control at 70 g/ha [7] was 95 to 100% and the pest or weed control at 17.5 g/ha [8] was 95 to 100%. The pest or weed control at 35 g/ha [8] was 95 to 100%, the pest or weed control at 70 g/ha [8] was 95 to 100% and the pest or weed control at 17.5 g/ha [9] was 85 to 94%. For the same molecule, the pest or weed control at 35 g/ha [9] was 95 to 100%, the pest or weed control at 70 g/ha [9] was 95 to 100% and the pest or weed control at 17.5 g/ha [10] was 60 to 74%. For the same molecule, the pest or weed control at 35 g/ha [10] was 75 to 84%, the pest or weed control at 70 g/ha [10] was 75 to 84% and the pest or weed control at 17.5 g/ha [11] was 95 to 100%. The pest or weed control at 35 g/ha [11] was 95 to 100%, the pest or weed control at 70 g/ha [11] was 95 to 100% and the pest or weed control at 17.5 g/ha [12] was 95 to 100%. It also gave a pest or weed control at 35 g/ha [12] of 95 to 100% and a pest or weed control at 70 g/ha [12] of 95 to 100%.
